# Measurements as given in the supplement of paper PMC4862054.
# Test system: CAL-85-1
# Test: normalised response (% of control), CellTox Green; higher = less cell death (100 = DMSO, 0 = benzethonium chloride kill control)
# Details: incubation time: 72 h
# Procedure, shortened: (§1)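 Breast cancer cell lines, seeded at 20 µl suspension per well, were incubated for 72 h in 384-well plates containing compound at 5 concentrations. These concentrations rose in 10-fold steps over a 10,000-fold range set for each compound. CellTox Green fluorescence (485/520 nm) was read, then CellTiter-Glo luminescence after 10 min at room temperature, and each plate was normalised to 0.1 % DMSO (100) and a positive kill control (0). Values are normalised signals, each at one concentration.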
row,SMILES,normalised response [%]
1,O=C1CCC(N2C(=O)c3ccccc3C2=O)C(=O)N1 (stereo unspecified) [Thalidomide] (10000 nM),119
2,O=P1(NCCCl)OCCCN1CCCl (stereo unspecified) [Ifosfamide] (10000 nM),133
3,Cc1ccc(C(=O)N(CCCN)[C@@H](c2oc3cc(Cl)ccc3c(=O)c2Cc2ccccc2)C(C)C)cc1 (100 nM),99.9
4,COc1cc([C@@H]2c3cc4c(cc3[C@@H](O[C@@H]3O[C@@H]5CO[C@@H](C)O[C@H]5[C@H](O)[C@H]3O)[C@H]3COC(=O)[C@H]23)OCO4)cc(OC)c1O [Etoposide] (1000 nM),99.6
5,N[C@@H](CSC(c1ccccc1)(c1ccccc1)c1ccccc1)C(=O)O [S-trityl-L-cysteine] (40000 nM),98.6
6,CN(C)/N=N/c1[nH]cnc1C(N)=O [Dacarbazine] (10000 nM),81.7

# Test system: MDA-MB-453
# Test: as above
# Details: incubation time: 72 h
# Procedure, shortened: as §1
row,SMILES,normalised response [%]
1,O=C1CCC(N2C(=O)c3ccccc3C2=O)C(=O)N1 (stereo unspecified) [Thalidomide] (10000 nM),93.2
2,O=P1(NCCCl)OCCCN1CCCl (stereo unspecified) [Ifosfamide] (10000 nM),104
3,Cc1ccc(C(=O)N(CCCN)[C@@H](c2oc3cc(Cl)ccc3c(=O)c2Cc2ccccc2)C(C)C)cc1 (100 nM),93.5
4,COc1cc([C@@H]2c3cc4c(cc3[C@@H](O[C@@H]3O[C@@H]5CO[C@@H](C)O[C@H]5[C@H](O)[C@H]3O)[C@H]3COC(=O)[C@H]23)OCO4)cc(OC)c1O [Etoposide] (1000 nM),94.8
5,N[C@@H](CSC(c1ccccc1)(c1ccccc1)c1ccccc1)C(=O)O [S-trityl-L-cysteine] (40000 nM),113
6,CN(C)/N=N/c1[nH]cnc1C(N)=O [Dacarbazine] (10000 nM),101

# Test system: MFM-223
# Test: as above
# Details: incubation time: 72 h
# Procedure, shortened: as §1
row,SMILES,normalised response [%]
1,O=C1CCC(N2C(=O)c3ccccc3C2=O)C(=O)N1 (stereo unspecified) [Thalidomide] (10000 nM),101
2,O=P1(NCCCl)OCCCN1CCCl (stereo unspecified) [Ifosfamide] (10000 nM),95.7
3,Cc1ccc(C(=O)N(CCCN)[C@@H](c2oc3cc(Cl)ccc3c(=O)c2Cc2ccccc2)C(C)C)cc1 (100 nM),90.5
4,COc1cc([C@@H]2c3cc4c(cc3[C@@H](O[C@@H]3O[C@@H]5CO[C@@H](C)O[C@H]5[C@H](O)[C@H]3O)[C@H]3COC(=O)[C@H]23)OCO4)cc(OC)c1O [Etoposide] (1000 nM),103
5,N[C@@H](CSC(c1ccccc1)(c1ccccc1)c1ccccc1)C(=O)O [S-trityl-L-cysteine] (40000 nM),91
6,CN(C)/N=N/c1[nH]cnc1C(N)=O [Dacarbazine] (10000 nM),96.7

# Test system: CAL-148
# Test: as above
# Details: incubation time: 72 h
# Procedure, shortened: as §1
row,SMILES,normalised response [%]
1,O=C1CCC(N2C(=O)c3ccccc3C2=O)C(=O)N1 (stereo unspecified) [Thalidomide] (10000 nM),60.5
2,O=P1(NCCCl)OCCCN1CCCl (stereo unspecified) [Ifosfamide] (10000 nM),95.8
3,Cc1ccc(C(=O)N(CCCN)[C@@H](c2oc3cc(Cl)ccc3c(=O)c2Cc2ccccc2)C(C)C)cc1 (100 nM),106
4,COc1cc([C@@H]2c3cc4c(cc3[C@@H](O[C@@H]3O[C@@H]5CO[C@@H](C)O[C@H]5[C@H](O)[C@H]3O)[C@H]3COC(=O)[C@H]23)OCO4)cc(OC)c1O [Etoposide] (1000 nM),30.9
5,N[C@@H](CSC(c1ccccc1)(c1ccccc1)c1ccccc1)C(=O)O [S-trityl-L-cysteine] (40000 nM),92.2

# Test system: CAL-51
# Test: as above
# Details: incubation time: 72 h
# Procedure, shortened: as §1
row,SMILES,normalised response [%]
1,O=C1CCC(N2C(=O)c3ccccc3C2=O)C(=O)N1 (stereo unspecified) [Thalidomide] (10000 nM),100
2,O=P1(NCCCl)OCCCN1CCCl (stereo unspecified) [Ifosfamide] (10000 nM),93.9
3,Cc1ccc(C(=O)N(CCCN)[C@@H](c2oc3cc(Cl)ccc3c(=O)c2Cc2ccccc2)C(C)C)cc1 (100 nM),74.4
4,COc1cc([C@@H]2c3cc4c(cc3[C@@H](O[C@@H]3O[C@@H]5CO[C@@H](C)O[C@H]5[C@H](O)[C@H]3O)[C@H]3COC(=O)[C@H]23)OCO4)cc(OC)c1O [Etoposide] (1000 nM),50.3
5,N[C@@H](CSC(c1ccccc1)(c1ccccc1)c1ccccc1)C(=O)O [S-trityl-L-cysteine] (40000 nM),104
6,CN(C)/N=N/c1[nH]cnc1C(N)=O [Dacarbazine] (10000 nM),111

# Test system: BT-474
# Test: as above
# Details: incubation time: 72 h
# Procedure, shortened: as §1
row,SMILES,normalised response [%]
1,O=C1CCC(N2C(=O)c3ccccc3C2=O)C(=O)N1 (stereo unspecified) [Thalidomide] (10000 nM),103
2,O=P1(NCCCl)OCCCN1CCCl (stereo unspecified) [Ifosfamide] (10000 nM),70.9
3,Cc1ccc(C(=O)N(CCCN)[C@@H](c2oc3cc(Cl)ccc3c(=O)c2Cc2ccccc2)C(C)C)cc1 (100 nM),102
4,COc1cc([C@@H]2c3cc4c(cc3[C@@H](O[C@@H]3O[C@@H]5CO[C@@H](C)O[C@H]5[C@H](O)[C@H]3O)[C@H]3COC(=O)[C@H]23)OCO4)cc(OC)c1O [Etoposide] (1000 nM),101
5,N[C@@H](CSC(c1ccccc1)(c1ccccc1)c1ccccc1)C(=O)O [S-trityl-L-cysteine] (40000 nM),103
6,CN(C)/N=N/c1[nH]cnc1C(N)=O [Dacarbazine] (10000 nM),95

# Test system: MDA-MB-468
# Test: as above
# Details: incubation time: 72 h
# Procedure, shortened: as §1
row,SMILES,normalised response [%]
1,O=C1CCC(N2C(=O)c3ccccc3C2=O)C(=O)N1 (stereo unspecified) [Thalidomide] (10000 nM),186
2,O=P1(NCCCl)OCCCN1CCCl (stereo unspecified) [Ifosfamide] (10000 nM),193
3,Cc1ccc(C(=O)N(CCCN)[C@@H](c2oc3cc(Cl)ccc3c(=O)c2Cc2ccccc2)C(C)C)cc1 (100 nM),59.9
4,COc1cc([C@@H]2c3cc4c(cc3[C@@H](O[C@@H]3O[C@@H]5CO[C@@H](C)O[C@H]5[C@H](O)[C@H]3O)[C@H]3COC(=O)[C@H]23)OCO4)cc(OC)c1O [Etoposide] (1000 nM),102
5,N[C@@H](CSC(c1ccccc1)(c1ccccc1)c1ccccc1)C(=O)O [S-trityl-L-cysteine] (40000 nM),124
6,CN(C)/N=N/c1[nH]cnc1C(N)=O [Dacarbazine] (10000 nM),104

# Test system: HCC1143
# Test: as above
# Details: incubation time: 72 h
# Procedure, shortened: as §1
row,SMILES,normalised response [%]
1,O=C1CCC(N2C(=O)c3ccccc3C2=O)C(=O)N1 (stereo unspecified) [Thalidomide] (10000 nM),105
2,O=P1(NCCCl)OCCCN1CCCl (stereo unspecified) [Ifosfamide] (10000 nM),99.9
3,COc1cc([C@@H]2c3cc4c(cc3[C@@H](O[C@@H]3O[C@@H]5CO[C@@H](C)O[C@H]5[C@H](O)[C@H]3O)[C@H]3COC(=O)[C@H]23)OCO4)cc(OC)c1O [Etoposide] (1000 nM),120
4,N[C@@H](CSC(c1ccccc1)(c1ccccc1)c1ccccc1)C(=O)O [S-trityl-L-cysteine] (40000 nM),132
5,CN(C)/N=N/c1[nH]cnc1C(N)=O [Dacarbazine] (10000 nM),116
